Data taken from patent US20260137698A1, “CYCLIN-DEPENDENT KINASE 7 INHIBITORS” (JOINT STOCK COMPANY «BIOCAD», priority 2022, published 2026).
Where two headings read alike, the source gives them in different places.

How the values were obtained:
[1] = Microsomal stability in mouse liver microsomes (MLM); format: in vitro ADME; conditions: mouse liver microsomes 0.5 mg/ml, 1 μM compound, NADPH
Protocol: The procedure for investigating the metabolism of selected compounds was carried out in microsomal fractions of the liver (of rats, mice, humans) in the presence of a phase I metabolism cofactor (NADPH).
The rate of enzymatic decomposition of the compound in liver microsomes in in vitro analysis was determined by keeping a reaction mixture comprising 0.5 mg/ml of pooled human, rat or mouse liver microsomes, 1 μM test compound, 1.5 mM […] (Carbosynth, UK, cat. no. NN108711101) and 1.5 mM magnesium chloride in 0.1 M sodium phosphate buffer (pH 7.4) in a solid-state thermostat at 37° C. (XenoTech, USA, order no. H2610, cat. no. R1000, cat. no. M1000). Incubation was carried out in three replicates.
To determine the stability of compounds under sample preparation conditions, an aliquot in two replicates with the test compound and a microsomal fraction devoid of the NADPH cofactor, which was incubated for 40 minutes at 37° C.
Reactions were stopped at 0, 10, 20, 30 and 40 min time points by way of adding an ice mixture of acetonitrile:methanol (3:1) comprising an internal standard.
Samples were then centrifuged to remove the precipitated protein, supernatants were analyzed using HPLC-MS/MS to determine in vitro clearance (CLint) of the compounds. The Agilent 6410 mass spectrometer (Agilent, USA) combined with the Agilent 1260 Infinity II HPLC liquid chromatograph (Agilent, USA) and a cooling autosampler controlled by MassHunter software (Agilent, USA) was used as an HPLC-MS/MS system. Chromatographic analysis was performed on a C18 reversed-phase HPLC column (Agilent, Waters or equivalent) in a gradient elution mode in a system of mobile phases: 0.1% formic acid in water/0.1% formic acid in acetonitrile, flow rate: 0.5 ml/min, column T=35° C. Mass spectrometric detection was performed with electrospray ionization in multiple reaction monitoring mode. Precursor ions, fragment ions and collision energies for each substance were selected experimentally.
A graph of dependence of the logarithmic ratio between substance's peak area and internal standard's peak area vs time was built. The dependent coefficient of this line corresponded to the elimination rate constant k, on the basis of which the in vitro clearance CLint was calculated:
Based on resulting in vitro clearance CLint values, the microsomal stability of the selected compounds for humans, rats and mice was concluded.

[2] = Pharmacokinetics in mice plasma following intravenous administration; format: in vivo, CD-1 mice; conditions: male, CD-1, mouse; for half-life: read-out: T½ (converted); for Vd: read-out: Vss
Protocol: Pharmacokinetic studies of the compounds were carried out on CD-1 mice, males, aged about 8 weeks, weighing 16-29 g. The animals were given a single oral (PO) administration (intragastrically) at a dose of 10 mg/kg in a formulation in the form of a 0.2% solution of hydroxypropyl methylcellulose (HPMC) in a 5% aqueous solution of glucose and a single IV-bolus administration (intravenously) at a dose of 1.0 mg/kg for 1277 and at a dose of 2.0 mg/kg for substances CDK7_1187, CDK7_1225, CDK7_1229 and CDK7_1276 in a formulation comprising 0.2% DMSO in 5% aqueous solution of glucose.
For each substance, 21-30 animals were used for each dose of PO and IV administration. All mice were weighed and randomized before dosing.
3-5 animals were used for each time point. Each animal was sampled at one time point. At least 12 h before the start of the experiment, the animals were deprived of food while maintaining free access to water.
Animals from the PO and IV groups were subjected to blood sampling before administering the substance and after 0.5, 2, 4, 8, 12 and 24 h.
Blood was collected by cardiac puncture using the closed method. Blood was collected in a volume of 0.2 ml into polypropylene tubes comprising 20 μl of 5% EDTA. Blood plasma was separated by centrifugation at 10000 rpm for 10 minutes at 4±2° C. and transferred into clean labeled tubes.
Test blood plasma samples of mice from the experimental groups were obtained in a volume of 50 μl. Afterwards, […] of a solution of internal standard (tolbutamide (Sigma, T0891)) prepared in acetonitrile, at a concentration of 50 ng/ml, pre-cooled in the refrigerator at 2-8° C., was added to the samples, stirred in a vortex mixer (G560E, Scientific Industries) for 10 seconds and incubated at 4° C. for 15 minutes for protein precipitation. Samples were then centrifuged (5417R centrifuge, Eppendorf) at 1500 g for 10 minutes while cooling to 4° C. 150 μl of the supernatant were transferred to a 96-well plate for HPLC-MS/MS analysis. Quantitative determination of test compounds in blood plasma was carried out by absolute calibration method. The calibration curve was generated by analyzing plasma samples with supplementations of known amounts of the standard of the compound being determined. The lower limit of the quantitative determination of test compounds in blood plasma was 1 ng/ml, the analytical range of the technique was 1 ng/ml to 2000 ng/ml. The technique was partially validated in terms of selectivity, accuracy, precision, linearity, matrix effects, stability.
The Qtrap 5500 mass spectrometer (AB Sciex) in combination with the Agilent 1290 Infinity II HPLC liquid chromatograph (Agilent) and a cooling multisampler (Agilent 1290 Infinity II Multisampler G7167B) was used as an HPLC-MS/MS system. Chromatographic analysis was performed on a C18 reversed-phase HPLC column (YMC-Triart C18, 50*2 mm, 1.9 μm, YMC CO. Ltd). The mobile phase used was used a mixture of deionized water and acetonitrile supplemented with 0.1% formic acid in gradient mode, flow rate: 0.5 ml/min, column T=40° C., autosampler T=8° C., analysis time: 2.8 min. Mass spectrometric detection was performed in multiple reaction monitoring (MRM) mode. Precursor ions, fragment ions and collision energies for each substance were selected experimentally. Two Q1/Q3 transitions were used to record MRM chromatograms of the analyte and internal standard; one of transitions was used for quantitative calculations, the other one was used to confirm that the […] corresponds to a given substance. Based on the results of HPLC-MS/MS analysis of calibration samples using the Analyst 1.6.3 software, the calibration dependence of areas of chromatographic analyte peaks normalized to the signal of the internal standard on the concentration of the analyte was built.
Pharmacokinetic analysis was performed by non-compartmental method using the Phoenix WinNonlin 6.3 software package. […]

Row | Compound | MLM Clint [1] | AUC(0-t) ([2]; dose 2 mg/kg) [ng·h/mL] | clearance ([2]; dose 2 mg/kg) [mL/min/kg] | half-life ([2]; dose 2 mg/kg) [h] | Vd ([2]; dose 2 mg/kg) [L/kg] | AUC(0-t) ([2]; dose 1 mg/kg) [ng·h/mL] | clearance ([2]; dose 1 mg/kg) [mL/min/kg] | half-life ([2]; dose 1 mg/kg) [h] | Vd ([2]; dose 1 mg/kg) [L/kg]
1 | CN1CCCc2c(-c3nc(N[C@H]4CCCNC4)ncc3C(F)(F)F)c[nH]c2C1=O [CDK7_953, 7-methyl-3-(2-{[(3S)-piperidin-3-yl]amino}-5-(trifluoromethyl)py-rimidin-4-yl)-1H,4H,5H,6H,7H, 8H-pyrrolo[2,3-c]azepin-8-one] | A (Clint < 20 μl/(min · mg of protein)) | – | – | – | – | – | – | – | –
2 | CN1CCCc2c(-c3nc(N[C@H]4CCC(C)(C)NC4)ncc3C(F)(F)F)c[nH]c2C1=O [CDK7_1187, 3-(2-{[(3S)-6,6-dimethylpiperidin-3-yl]amino}-5-(trifluoromethyl)py-rimidin-4-yl)-7-methyl-1H,4H,5H,6H,7H, 8H-pyrrolo[2,3-c]azepin-8-one] | A (Clint < 20 μl/(min · mg of protein)) | 314 | 103 | 1.7 | 10.1 | – | – | – | –
3 | CC1(C)CC[C@H](Nc2ncc(C(F)(F)F)c(-c3c[nH]c4c3CCCN(C3CC3)C4=O)n2)CN1 [CDK7_1225, 7-cyclopropyl-3-(2-{[(3S)-6,6-dimethylpiperidin-3-yl]amino}-5-(trifluoromethyl)py-rimidin-4-yl)-1H,4H,5H,6H,7H, 8H-pyrrolo[2,3-c]azepin-8-one] | A (Clint < 20 μl/(min · mg of protein)) | 691 | 48 | 1.8 | 6.3 | – | – | – | –
4 | CC(C)N1CCCc2c(-c3nc(N[C@H]4CCC(C)(C)NC4)ncc3C(F)(F)F)c[nH]c2C1=O [CDK7_1229, 3-(2-{[(3S)-6,6-dimethylpiperidin-3-yl]amino}-5-(trifluoromethyl)py-rimidin-4-yl)-7-(propan-2-yl)-1H,4H,5H,6H,7H, 8H-pyrrolo[2,3-c]azepin-8-one] | A (Clint < 20 μl/(min · mg of protein)) | 1140 | 29 | 2 | 4.17 | – | – | – | –
5 | O=C1c2[nH]cc(-c3nc(N[C@H]4CCC5(CC5)NC4)ncc3C(F)(F)F)c2CCCN1C1CC1 [CDK7_1276, 3-(2-{[(6S)-4-azaspiro[2.5]octan-6-yl]amino}-5-(trifluoromethyl)py-rimidin-4-yl)-7-cyclopropyl-1H,4H,5H,6H,7H, 8H-pyrrolo[2,3-c]azepin-8-one] | B (50 μl/(min · mg of protein) > Clint > 20 μl/(min · mg of protein)) | 1380 | 21.5 | 4.15 | 6.52 | – | – | – | –
6 | CC(C)N1CCCc2c(-c3nc(N[C@H]4CCC5(CC5)NC4)ncc3C(F)(F)F)c[nH]c2C1=O [CDK7_1277, 3-(2-{[(6S)-4-azaspiro[2.5]octan-6-yl]amino}-5-(trifluoromethyl)py-rimidin-4-yl)-7-(propan-2-yl)-1H,4H,5H,6H,7H, 8H-pyrrolo[2,3-c]azepin-8-one] | B (50 μl/(min · mg of protein) > Clint > 20 μl/(min · mg of protein)) | – | – | – | – | 363 | 45 | 2.1 | 6.89
